Our source for the GI50 values is patent publication US9132130B2, “Purine derivative and antitumor agent using same” (ZENYAKU KOGYO KABUSHIKI KAISHA, priority 2009, dated 2015).

What all share (type): cell-based
The subject of test [1] is A549 cells (human lung cancer cells). As to the kind of experiment: in vitro antitumor activity test, A549 cells, XTT colorimetry. To be noted: cultured 72 hours. As to the method:
(§1) WiDr cells (human colon cancer cells) subcultured in a culture medium composed of a MEM medium added with 10% fetal bovine serum, 25 mM HEPES and 0.1 mg/ml kanamycin under the conditions of 37° C. and 5% carbon dioxide gas were made into single floating cells by treating with trypsin/EDTA, and a single cell suspension of 3×10^4 cells per 1 ml was prepared using the MEM medium (added with 10% fetal bovine serum, 25 mM HEPES and 0.1 mg/ml kanamycin). After dissolving the test compounds in DMSO, they were diluted in a RPMI 1640 medium (added with 10% fetal bovine serum, 25 mM HEPES and 0.1 mg/ml kanamycin) and prepared so that the concentrations were 2.0×10^−9 to 2.0×10^−4 M.
(§2) 0.1 ml of the cell suspension was placed into each well of 96-well microplates, cultured for 24 hours to allow the cells to adhere to the microplates, then 0.1 ml of the sample solutions were added, and cultured for 72 hours at 37° C. in 5% carbon dioxide gas.
(§3) Afterwards, the level of growth inhibition at various sample concentrations was obtained using XTT colorimetry, and concentrations at which growth was inhibited by 50% (GI50 values [μM]) were calculated.
(§4) In addition, cells other than WiDr cells that were used, and the condition for preparing each single cell suspension were as follows.
A549 cells (human lung cancer cells): 2×10^4 cells/ml
(In general: Tetrazolium dyes change colour on reduction, which living cells bring about.)

Test [2] relates to B16F10 cells (mouse melanoma [malignant melanoma] cells). Kind of test: in vitro antitumor activity test, B16F10 cells, XTT colorimetry. The following applies: B16-F10, cultured 72 hours. As to the method:
as §1, §2, §3, §4
B16F10 cells (mouse melanoma [malignant melanoma] cells): 1×10^4 cells/ml

Test [3] concerns WiDr cells (human colon cancer cells). Kind of test: in vitro antitumor activity test, WiDr cells, XTT colorimetry. To be noted: cultured 72 hours. As for the experimental part:
as §1, §2, §3

For test [4], the system named is PC-3 cells (human prostate cancer cells). Kind of test: in vitro antitumor activity test, PC-3 cells, XTT colorimetry. The following applies: PC-3 human prostate cancer cells, cultured 72 hours. As for the experimental part: as §1, §2, §3, §4
PC-3 cells (human prostate cancer cells): 2×10^4 cells/ml

In test [5] the test system is P388 cells (mouse leukemia cells). Kind of test: in vitro antitumor activity test, P388 cells, XTT colorimetry. To be noted: cultured 72 hours. As for the experimental part:
P388 cells (mouse leukemia cells) passaged in the abdominal cavity of DBA/2 mice were extracted with ascitic fluid, and cultured in a RPMI 1640 medium (added with 10% fetal bovine serum, 25 mM HEPES, 0.1 mg/ml kanamycin and 5 μM 2-hydroxyethyldisulfide) at 37° C. in 5% carbon dioxide gas. After culturing for 16 hours, floating P388 cells were made into a single cell suspension of 4×10^4 cells per 1 ml using the same RPMI 1640 medium as given above. The test substances were dissolved in DMSO, then diluted in a RPMI 1640 medium (added with 10% fetal bovine serum, 25 mM HEPES and 0.1 mg/ml kanamycin) and prepared so that the concentrations were 2.0×10^−9 to 2.0×10^−4 M.
0.1 ml of the cell suspension was placed into each well of 96-well microplates, then 0.1 ml of the sample solutions were added, and cultured for 72 hours at 37° C. in 5% carbon dioxide gas.
as §3

Each structure is given as a SMILES string.

One may read the GI50 as the concentration giving 50% growth inhibition. The low end stands for greater sensitivity of the cells, the high end for lower sensitivity of the cells. On to `CCc1nc2c(N3CCN(N=O)C(C)C3)nc(SCc3ccc(OC)cc3)nc2n1C` (stereo in doubt) [Compound 22, 8-ethyl-2-(4-methoxybenzylsulfanyl)-9-methyl-6-[(3S)-3-methyl-4-nitrosopiperazin-1-yl]-9H-purine], for which the concentration for 50% growth inhibition (GI50) turned out to be 1250 nM in test [1]; 1610 nM in test [2]; 1190 nM in test [3]; 640 nM in test [4]; 950 nM in test [5].

For `CCc1nc2c(N3CCOCC3)nc(SCc3ccc(OC)cc3)nc2n1C` [Compound 1, 8-ethyl-2-(4-methoxybenzylsulfanyl)-9-methyl-6-morpholino-9H-purine], the GI50 was 560 nM in test [1]; 410 nM in test [2]; 350 nM in test [3]; 280 nM in test [4]; 290 nM in test [5].

For `CCCn1c(CC)nc2c(N3CCOCC3)nc(SCc3ccc(OC)cc3)nc21` [Compound 6, 8-ethyl-2-(4-methoxybenzylsulfanyl)-6-morpholino-9-propyl-9H-purine], the concentration for 50% growth inhibition (GI50) in test [1] worked out at 870 nM; in test [2] it was 1160 nM; in test [3], 940 nM; in test [4], 600 nM; in test [5], 720 nM.

Regarding `CCc1nc2c(N3CCOCC3)nc(SCc3ccc(C)cc3)nc2n1C` [Compound 8, 8-ethyl-9-methyl-2-(4-methylbenzylsulfanyl)-6-morpholino-9H-purine], the concentration for 50% growth inhibition (GI50) came to 2200 nM in test [1]; 1700 nM in test [2]; 1470 nM in test [3]; 610 nM in test [4]; 1020 nM in test [5].

For the compound `COc1ccc(CSc2nc(N3CCOCC3)c3ncn(C)c3n2)cc1` [Compound 9, 2-(4-methoxybenzylsulfanyl)-9-methyl-6-morpholino-9H-purine], the concentration for 50% growth inhibition (GI50) worked out at 570 nM in test [1]; 1170 nM in test [2]; 400 nM in test [3]; 380 nM in test [4]; 300 nM in test [5].

In the case of `C=Cc1ccc(CSc2nc(N3CCOCC3)c3nc(CC)n(C)c3n2)cc1` [Compound 10, 8-ethyl-9-methyl-6-morpholino-2-(4-vinylbenzylsulfanyl)-9H-purine], the 50% growth inhibitory concentration (GI50) in test [1] was found to be 1690 nM; in test [2], 1820 nM; in test [3] it was 1250 nM; in test [4], 890 nM; in test [5], 1280 nM.

`CCc1nc2c(N3CCOCC3)nc(SCc3ccc(C)c(F)c3)nc2n1C` [Compound 11, 8-ethyl-2-(3-fluoro-4-methylbenzylsulfanyl)-9-methyl-6-morpholino-9H-purine]: the GI50 was 1160 nM in test [1]; 1490 nM in test [2]; 1040 nM in test [3]; 400 nM in test [4]; 670 nM in test [5].

Turning to `CCc1ccc(CSc2nc(N3CCOCC3)c3nc(CC)n(C)c3n2)cc1` [Compound 12, 8-ethyl-2-(4-ethylbenzylsulfanyl)-9-methyl-6-morpholino-9H-purine], the GI50 in test [1] was found to be 1890 nM; in test [2], 3910 nM; in test [3], 1240 nM; in test [4] it was 850 nM; in test [5] it was 1250 nM.

For the compound `CCc1nc2c(N3CCOCC3)nc(SCc3ccc(OC)c(F)c3)nc2n1C` [Compound 14, 8-ethyl-2-(3-fluoro-4-methoxybenzylsulfanyl)-9-methyl-6-morpholino-9H-purine], the 50% growth inhibitory concentration (GI50) in test [1] was determined as 120 nM; in test [2], 340 nM; in test [3] it was 260 nM; in test [4], 160 nM; in test [5], 200 nM.

`CCc1nc2c(N3CCOCC3)nc(SCc3ccc(OC)cc3OCc3ccccc3)nc2n1C` [Compound 15, 2-(2-benzyloxy-4-methoxybenzylsulfanyl)-8-ethyl-9-methyl-6-morpholino-9H-purine]: the GI50 in test [1] is 2280 nM; in test [2], 1800 nM; in test [3], 1160 nM; in test [4], 820 nM; in test [5] it was 870 nM.

In the case of `CCc1nc2c(N3CCOCC3)nc(SCc3ccc(OC)c(Cl)c3)nc2n1C` [Compound 16, 2-(3-chloro-4-methoxybenzylsulfanyl)-8-ethyl-9-methyl-6-morpholino-9H-purine], the 50% growth inhibitory concentration (GI50) stood at 1750 nM in test [1]; 1680 nM in test [2]; 1220 nM in test [3]; 910 nM in test [4]; 850 nM in test [5].

On to `CCOc1ccc(CSc2nc(N3CCOCC3)c3nc(CC)n(C)c3n2)cc1` [Compound 17, 2-(4-ethoxybenzylsulfanyl)-8-ethyl-9-methyl-6-morpholino-9H-purine], for which the GI50 in test [1] was 760 nM; in test [2], 1290 nM; in test [3], 510 nM; in test [4], 460 nM; in test [5], 360 nM.

With `COc1ccc(CSc2nc(N3CCOCC3)c3ncn(C)c3n2)cc1N` [Compound 18, 2-(3-amino-4-methoxybenzylsulfanyl)-9-methyl-6-morpholino-9H-purine], the concentration for 50% growth inhibition (GI50) stood at 950 nM in test [1]; 1090 nM in test [2]; 3140 nM in test [3]; 690 nM in test [4]; 350 nM in test [5].

Regarding `COc1ccc(CSc2nc(N(C)C)c3ncn(C)c3n2)cc1N` [Compound 19, 2-(3-amino-4-methoxybenzylsulfanyl)-6-dimethylamino-9-methyl-9H-purine], the GI50 was found to be 450 nM in test [1]; 450 nM in test [2]; 4040 nM in test [3]; 400 nM in test [4]; 320 nM in test [5].

For `CCc1nc2c(N3CCN(N=O)CC3)nc(SCc3ccc(OC)c(F)c3)nc2n1C` [Compound 20, 8-ethyl-2-(3-fluoro-4-methoxybenzylsulfanyl)-9-methyl-6-(4-nitrosopiperazin-1-yl)-9H-purine], the GI50 turned out to be 160 nM in test [1]; 320 nM in test [2]; 80 nM in test [3]; 40 nM in test [4]; 80 nM in test [5].

For `COc1ccc(CSc2nc(N(C)C)c3ncn(C)c3n2)cc1` [Compound 21, 6-dimethylamino-2-(4-methoxybenzylsulfanyl)-9-methyl-9H-purine], the 50% growth inhibitory concentration (GI50) in test [1] came to 220 nM; in test [2] it was 340 nM; in test [3], 140 nM; in test [4] it was 140 nM; in test [5], 100 nM.

As to `CCc1nc2c(N(C)C)nc(SCc3ccc(OC)c(N)c3)nc2n1C` [Compound 23, 2-(3-amino-4-methoxybenzylsulfanyl)-6-dimethylamino-8-ethyl-9-methyl-9H-purine], the GI50 in test [1] was determined as 250 nM; in test [2] it was 500 nM; in test [3], 440 nM; in test [4], 130 nM; in test [5], 230 nM.

`CCc1nc2c(N(C)C)nc(SCc3ccc(OC)cc3)nc2n1C` [Compound 24, 6-dimethylamino-8-ethyl-2-(4-methoxybenzylsulfanyl)-9-methyl-9H-purine]: the concentration for 50% growth inhibition (GI50) in test [1] is 320 nM; in test [2] it was 440 nM; in test [3], 210 nM; in test [4], 260 nM; in test [5] it was 200 nM.

Consider `CCN(CC)c1nc(SCc2ccc(OC)cc2)nc2c1ncn2C` [Compound 25, 6-diethylamino-2-(4-methoxybenzylsulfanyl)-9-methyl-9H-purine], for which the 50% growth inhibitory concentration (GI50) in test [1] worked out at 950 nM; in test [2], 1380 nM; in test [3], 820 nM; in test [4], 1130 nM; in test [5], 680 nM.

With `CNc1nc(SCc2ccc(OC)cc2)nc2c1ncn2C` [Compound 26, 2-(4-methoxybenzylsulfanyl)-9-methyl-6-methylamino-9H-purine], the concentration for 50% growth inhibition (GI50) in test [1] was determined as 110 nM; in test [2] it was 340 nM; in test [3] it was 80 nM; in test [4], 110 nM; in test [5], 70 nM.

Take `CCc1nc2c(N3CCOCC3)nc(SCc3ccc(OC)c(NC(C)=O)c3)nc2n1C` [Compound 27, 2-(3-acetylamino-4-methoxybenzylsulfanyl)-8-ethyl-9-methyl-6-morpholino-9H-purine]: the concentration for 50% growth inhibition (GI50) amounted to 580 nM in test [1]; 1340 nM in test [2]; 920 nM in test [3]; 650 nM in test [4]; 670 nM in test [5].
